Measurements from US5587402A, “Regression of mammalian leukemia cell tumors” (priority 1995, dated 1996).
“Also recorded” adds a separate entry of the source.

What was measured:
[1] = test system: nontransformed FDC-P1 cells; test: Cell cycle distribution of nontransformed FDC-P1 cells; format: cell-based, murine; conditions: for Cell cycle distribution (% > GO /G1): 24 hours, untreated control 62
Method: Table 3 tabulates the effect of P-OH on cell cycle distribution of nontransformed and p210 transformed FDC-P1 cells.
^1 Cells were plated at 2.5 × 10^5 per ml in duplicate well
of a 24well plate in the presence of 10% WEHI3-conditioned media as a
source of IL3 and with the indicated concentration of P--OH. After 24
hours, the cells were fixed in ethanol, permeabilized and stained with
propidium iodide, then analyzed for DNA content by flow cytometry.
^2 FDCP1 = nontransformed cells, Fp210.1 = 210transformed FDCP1 cells

[2] = Toxicity of dietary perillyl alcohol in rats; format: in vivo, Wistar-Furth female rats
Method: We used Wistar-Furth female rats for in vivo studies. Wistar-Furth female rats were obtained from Harlan Sprague-Dawley, Inc., (Madison, Wis.). All rats, arriving at 43-48 days of age, were housed at four rats per cage in wire-bottom metal cages and all were maintained with a light/dark cycle of 12 hours. Rates were provided Teklad Lab blox chow and acidified water ad libitum.
In the pair-feeding study, a group of 70 mammals was treated with DMBA. Beginning four weeks post-carcinogen administration, mammals were weighed and palpated weekly. Upon palpation of the first mammary tumor(s) (diameter≥3 mm), mammals were randomly assigned to control or 2.5% (w/w) perillyl alcohol diet and pair-fed.
Perillyl alcohol (>96% pure by GC analysis, Aldrich, Milwaukee, Wis.) and Teklad 4% mouse/rat diet meal were thoroughly mixed and stored at -20° C. Fresh diets were make every 7-10 days. All mammals were provided fresh diet daily to minimize evaporation of the monoterpenes. For pair-feeding, the quantity of diet consumed by the monoterpene-fed mammals was measured every 24 hours and the assigned partner was pair-fed accordingly.

[3] = test system: isoprenylation of 21-26 kDa proteins in NIH3T3 (mouse embryo) cells; test: Protein isoprenylation in NIH3T3 cells (21-26 kDa bands, SDS-PAGE fluorography); format: cell-based; set-up: Relative activity (inhibition of isoprenylation of 21-26 kDa proteins): key to the marks not given beside the values; conditions: Experiment 2; 1 mM
Method: NIH3T3 (mouse embryo) cells were obtained from the American Type Culture Collection and were grown in Dulbecco's modified Eagle's medium supplemented with 10% calf serum. […] Because they carried a radioactive label, isoprenylated proteins were visualized by fluorography. As a control, cells were incubated without the monoterpene. […] Whole cell extracts were analyzed by SDS-PAGE on 16-cm×18-cm×0.75-mm gels by the method of Laemmli (supra). […] Gels were stained with Coomassie Brilliant Blue, equilibrated for 20 minutes in Amplify (Amersham Corp.) fluorographic reagent, dried under vacuum at 65° C., and exposed to […] Some fluorograms were analyzed further by densitometry. […] Protein content was measured by the method of Lowry, et al. […] FIG. 1 depicts the structures of these monoterpenes.

[4] = test system: nontransformed FDC-P1 cells; test: Proliferation of nontransformed FDC-P1 myeloid cells; format: cell-based, murine; conditions: Mus musculus, FDC-P1, read-out: inhibition of cell growth
Method: (The p210 bcr/abl oncogene is carried on a helper-free retrovirus referred to as "p210.") FDC-P1 myeloid cells are an immature cell line from myeloid lineage derived from mouse bone marrow (Dexter, TM, J. Exp. Med. 152: 1036-1047, 1980).

[5] = test system: isoprenylation of 21-26 kDa proteins in M600B cells; test: Protein isoprenylation in M600B human mammary epithelial cells; format: cell-based
NIH3T3 cells = test: Inhibition of NIH3T3 cell growth; format: cell-based, mouse; conditions: FIG. 3
Method: NIH3T3 (mouse embryo) cells were obtained from the American Type Culture Collection and were grown in Dulbecco's modified Eagle's medium supplemented with 10% calf serum. M600B immortalized human mammary epithelial cells (Stampfer, M. R., 1985, J. Tissue Culture Methods 9: 107-115) were obtained from Dr. Martha Stampfer and were grown in supplemented HCDB 170 medium (Hammond, et al. (1984) Proc. Natl. Acad. Sci U.S.A. 81: 5435-5439), as described previously (Stampfer, et al. (1985) Proc. Natl. Acad. Sci U.S.A. 82: 2394-2398; Eldridge, et al. (1989) Cancer Res. 49: 4326-4331).
All cells were maintained in 100-mm dishes at 37° C. in a humidified 5% CO2 atmosphere. Viable cells were distinguished from nonviable cells by counting azure II/methylene blue-stained colonies 10 days after the cells were plated at a density of 100 cells per dish. Trypan blue exclusion was measured by incubating cells for 1 minute with one drop of trypan blue per 10 ml of cells. Viable (colorless) and nonviable (blue) cells were then counted on a hemocytometer.
Additionally, growth of HT29 (human colon adenocarcinoma) cells was inhibited by 80% by 1 mM perillyl alcohol.

[6] = test system: bcr/abl-induced leukemia in mice; test: bcr/abl-induced leukemia in mice fed perillyl alcohol diet; format: in vivo, mouse; conditions: diet containing 2% perillyl alcohol
Description: Experiments were done in which the non-malignant mouse bone marrow cell line, FDC-P1, was transformed with a retrovirus engineered to express the p210 bcr/abl oncogene. As described above, the bcr/abl oncogene plays a major role in the development of human Philadelphia chromosome (Ph) positive leukemias. Therefore, this mouse system represents a model of Ph^+ human leukemia. Injection of syngeneic animals with the bcr/abl transformed FDC-P1 cells induces lethal hematopoietic malignancy in which all animals had died within 30 days post-injection (absent perillyl alcohol).
Animals were fed either a control diet or a diet containing 2% perillyl alcohol and were challenged with either 3×10^5 or 3×10^6 bcr/abl-transformed cells. All animals on the control diet died by day 26.

[7] = Pharmacologic analysis of serum concentration in rats; format: in vivo; conditions: rats fed 2% perillyl alcohol
Description: In light of these observations, and our belief that p21^ras may be a target for perillyl alcohol activity in bcr/abl-transformed cells, it may be relevant that cellular ras activity is required for proliferating cells to pass through G1 (Dobrowski, et al., Mol. Cell Biol. 14: 5441-49, 1994).

For `C=C(C)[C@@H]1CC=C(CO)CC1` [perillyl alcohol], the “Cell cycle distribution (% > GO /G1)” value ([1]; 100 μM P--OH) was 57%, the “Cell cycle distribution (% > GO /G1)” value ([1]; 500 μM P--OH) was 49% and the “changes in the cell cycle distribution” value ([1]; up to 500 μM) was “only minor changes”. The “maximum dose tolerated (diet)” value ([2]; diet, data not shown) was 2.5%, the body weight ([2]; perillyl alcohol-fed versus control, FIG. 8) was “initial weight loss followed by weight gain and a plateau; also recorded: did not achieve weights similar to controls” and the “Relative activity (inhibition of isoprenylation of 21-26 kDa proteins)” value [3] was “+++++”. The inhibition at 400 µM [4] was under 15%, the “isoprenylation of 21-26 kDa proteins” value ([5]; 3 mM, FIG. 2) was “inhibited significantly” and the inhibition of isoprenylation ([5]; all cell types examined) was “inhibition of isoprenylation”. For the same molecule, the “inhibition of cell growth” value (NIH3T3 cells) was “significantly inhibited cell growth in a dose-dependent manner”, the “animals surviving longer than control animals” value ([6]; 3×10^5 or 3×10^6 cells, controls all died by day 26) was “about 20%” and the diet acceptance ([6]; most mice) was “most mice resisted the perillyl alcohol diet”. The “serum concentration relative to the in vitro effective concentration range” value [7] was “within the effective concentration range observed in these in vitro experiments”.
